Results taken from paper PMC8168783, “An anion and small molecule inhibition study of the β-carbonic anhydrase from Staphylococcus aureus” (Journal of Enzyme Inhibition and Medicinal Chemistry, 2021).

Molecular target: T1, SauBCA
T1 construct: recombinant, obtained in-house as described earlier
Experiment: stopped-flow CO2 hydration assay
Type: biochemical, Staphylococcus aureus
Details: CO2 1.7-17 mM, 10 mM Hepes pH 7.4, 10 mM NaClO4, 15 min preincubation at room temperature

Compound | Ki (inhibitor as sodium salt) | Ki (not as sodium salt)
CCN(CC)C(=S)S [N,N-diethyldithiocarbamate] | 0.64 mM | 
O=S(O)O [bisulphite] | 0.9 mM | 
O=[As](O)(O)c1ccccc1 [phenylarsonic acid] | 0.007 mM | 
OB(O)c1ccccc1 [phenylboronic acid] |  | 0.008 mM
N#C[SeH] [selenocyanate] | 5.5 mM | 
[O]=[Sn]([OH])[OH] [stannate] | 0.32 mM | 
